# Measurements from patent publication US12435092B2, “Substituted imidazo[1,2-A]quinazolines as inhibitors of PARG” (858 Therapeutics, Inc., priority 2022, dated 2025).
# Biological target: T1, cellular PARG (Homo sapiens, UniProt Q86W56)
# T1 construct: endogenous in cells; host or cells: HeLa
# Assay: Nuclear PAR accumulation assay (immunofluorescence high-content imaging)
# Format: cell-based
# Conditions: HeLa cells, 1 hour compound treatment then MMS 50 μg/mL for an additional hour
# Method in brief: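 HeLa cells pretreated 1 h at 37 °C with compound, then 1 h with 50 μg/mL MMS (final), methanol-fixed and immunostained for PAR with DAPI nuclear counterstain. Nuclear PAR intensity and percent PAR-positive cells quantified by high-content imaging (≥1,000 cells/well). IC50 by four-parameter logistic fit, normalized to 0.1% DMSO and reference-compound controls.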
# T1 sequence (Q86W56 whole entry): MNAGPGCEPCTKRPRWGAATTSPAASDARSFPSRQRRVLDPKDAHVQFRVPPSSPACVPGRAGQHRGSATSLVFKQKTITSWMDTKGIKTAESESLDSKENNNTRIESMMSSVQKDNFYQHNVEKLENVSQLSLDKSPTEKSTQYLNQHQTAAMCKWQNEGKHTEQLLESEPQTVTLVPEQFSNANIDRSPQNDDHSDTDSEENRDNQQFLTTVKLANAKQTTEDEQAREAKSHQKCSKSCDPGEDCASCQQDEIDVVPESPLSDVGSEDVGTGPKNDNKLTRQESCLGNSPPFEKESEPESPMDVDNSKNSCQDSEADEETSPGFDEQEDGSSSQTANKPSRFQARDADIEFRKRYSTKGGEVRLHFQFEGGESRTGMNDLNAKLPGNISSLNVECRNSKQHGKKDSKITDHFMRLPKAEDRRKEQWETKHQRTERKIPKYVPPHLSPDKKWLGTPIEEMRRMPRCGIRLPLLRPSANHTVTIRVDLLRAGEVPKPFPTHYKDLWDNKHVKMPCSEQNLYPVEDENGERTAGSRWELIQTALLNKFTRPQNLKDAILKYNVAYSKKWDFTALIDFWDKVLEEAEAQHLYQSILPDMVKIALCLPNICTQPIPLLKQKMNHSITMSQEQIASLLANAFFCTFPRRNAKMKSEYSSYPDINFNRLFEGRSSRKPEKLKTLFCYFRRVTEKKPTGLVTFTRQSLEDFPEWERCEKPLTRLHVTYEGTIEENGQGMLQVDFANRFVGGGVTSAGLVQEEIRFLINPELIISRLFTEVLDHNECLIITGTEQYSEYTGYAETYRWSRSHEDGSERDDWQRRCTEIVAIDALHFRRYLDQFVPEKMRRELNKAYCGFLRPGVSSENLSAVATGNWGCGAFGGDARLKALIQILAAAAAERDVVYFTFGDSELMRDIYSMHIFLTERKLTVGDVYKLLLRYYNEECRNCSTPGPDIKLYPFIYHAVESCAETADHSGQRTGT
row,Structure (SMILES),IC50 [nM]
1,"C[C@@H]1CN=C2N(Cc3cnn4c3CCC4)C(=O)c3cc(S(=O)(=O)NC4(C)CC4)ccc3N21 [Example 118, (R)-4-((5,6-dihydro-4H-pyrrolo[1,2-b]pyrazol-3-yl)methyl)-1-methyl-N-(1-methylcyclopropyl)-5-oxo-1,2,4,5-tetrahydroimidazo[1,2-a]quinazoline-7-sulfonamide]",≤ 100
2,"C[C@@H]1CN=C2N(Cc3cnn4c3OCCC4)C(=O)c3cc(S(=O)(=O)NC4(C)CC4)ccc3N21 [Example 119, (R)-4-((6,7-dihydro-5H-pyrazolo[5,1-b][1,3]oxazin-3-yl)methyl)-1-methyl-N-(1-methylcyclopropyl)-5-oxo-1,2,4,5-tetrahydroimidazo[1,2-a]quinazoline-7-sulfonamide]",≤ 100
3,"Cc1nc(C)c(CN2C(=O)c3cc(S(=O)(=O)NC4(C)CC4)ccc3N3C2=NC[C@H]3C)[nH]1 [Example 120, (R)-4-((2,4-dimethyl-1H-imidazol-5-yl)methyl)-1-methyl-N-(1-methylcyclopropyl)-5-oxo-1,2,4,5-tetrahydroimidazo[1,2-a]quinazoline-7-sulfonamide]",1000 to 10000
4,"Cc1nnsc1CN1C(=O)c2cc(S(=O)(=O)NC3(C)CC3)ccc2N2C1=NC[C@H]2C [Example 121, (R)-1-methyl-4-((4-methyl-1,2,3-thiadiazol-5-yl)methyl)-N-(1-methylcyclopropyl)-5-oxo-1,2,4,5-tetrahydroimidazo[1,2-a]quinazoline-7-sulfonamide]",≤ 100
5,"[2H]C([2H])(c1cnn2c1CCC2)N1C(=O)c2cc(S(=O)(=O)NC3(C)CC3)ccc2N2C1=NC[C@H]2C [Example 122, (R)-4-(dideutero(5,6-dihydro-4H-pyrrolo[1,2-b]pyrazol-3-yl)methyl)-1-methyl-N-(1-methylcyclopropyl)-5-oxo-1,2,4,5-tetrahydroimidazo[1,2-a]quinazoline-7-sulfonamide]",≤ 100
6,"C[C@@H]1CN=C2N(Cc3cnn(C)c3)C(=O)c3cc(S(=O)(=O)NC4(C)CC4)cc(Cl)c3N21 [Example 124, (R)-9-chloro-1-methyl-4-((1-methyl-1H-pyrazol-4-yl)methyl)-N-(1-methylcyclopropyl)-5-oxo-1,2,4,5-tetrahydroimidazo[1,2-a]quinazoline-7-sulfonamide]",≤ 100
7,"COCC1(C)CN2C(=N1)N(Cc1cnn(C)c1)C(=O)c1cc(S(=O)(=O)NC3(C)CC3)ccc12 (stereo not drawn) [Example 127, 2-(methoxymethyl)-2-methyl-4-((1-methyl-1H-pyrazol-4-yl)methyl)-N-(1-methylcyclopropyl)-5-oxo-1,2,4,5-tetrahydroimidazo[1,2-a]quinazoline-7-sulfonamide]",100 to 1000
8,"[2H]C([2H])(c1cnn(C)c1)N1C(=O)c2cc(S(=O)(=O)NC3(C)CC3)cc(Cl)c2N2C1=NC[C@H]2C [Example 128, (R)-9-chloro-4-(dideutero(1-methyl-1H-pyrazol-4-yl)methyl)-1-methyl-N-(1-methylcyclopropyl)-5-oxo-1,2,4,5-tetrahydroimidazo[1,2-a]quinazoline-7-sulfonamide]",≤ 100
9,"C[C@@H]1CN=C2N(Cc3cnn(C)c3)C(=O)c3cc(S(=O)(=O)NC4(C)CC4)cc(Br)c3N21 [Example 129, (R)-9-bromo-1-methyl-4-((1-methyl-1H-pyrazol-4-yl)methyl)-N-(1-methylcyclopropyl)-5-oxo-1,2,4,5-tetrahydroimidazo[1,2-a]quinazoline-7-sulfonamide]",≤ 100
10,"C[C@@H]1CN=C2N(Cc3cnn(C)c3)C(=O)c3cc(S(=O)(=O)NC4(C)CC4)cc(N4CCN(C(=O)N(C)C)CC4)c3N21 [Example 130, (R)—N,N-dimethyl-4-(1-methyl-4-((1-methyl-1H-pyrazol-4-yl)methyl)-7-(N-(1-methylcyclopropyl)sulfamoyl)-5-oxo-1,2,4,5-tetrahydroimidazo[1,2-a]quinazolin-9-yl)piperazine-1-carboxamide]",≤ 100
11,"C[C@@H]1CN=C2N(Cc3cnn(C)c3)C(=O)c3cc(S(=O)(=O)NC4(C)CC4)cc(C4=CCN(C)CC4)c3N21 [Example 131, (R)-1-methyl-9-(1-methyl-1,2,3,6-tetrahydropyridin-4-yl)-4-((1-methyl-1H-pyrazol-4-yl)methyl)-N-(1-methylcyclopropyl)-5-oxo-1,2,4,5-tetrahydroimidazo[1,2-a]quinazoline-7-sulfonamide]",≤ 100
12,"[2H]C([2H])(c1cnn(C)c1)N1C(=O)c2cc(S(=O)(=O)NC3(C)CC3)cc(C)c2N2C1=NC[C@H]2C [Example 132, (R)-1,9-dimethyl-4-((1-methyl-1H-pyrazol-4-yl)methyl-d2)-N-(1-methylcyclopropyl)-5-oxo-1,2,4,5-tetrahydroimidazo[1,2-a]quinazoline-7-sulfonamide]",≤ 100
13,"C[C@@H]1CN=C2N(Cc3cnn(C)c3)C(=O)c3cc(S(=O)(=O)NC4(C)CC4)cc(C4=CCOCC4)c3N21 [Example 133, (R)-9-(3,6-dihydro-2H-pyran-4-yl)-1-methyl-4-((1-methyl-1H-pyrazol-4-yl)methyl)-N-(1-methylcyclopropyl)-5-oxo-1,2,4,5-tetrahydroimidazo[1,2-a]quinazoline-7-sulfonamide]",≤ 100
14,"[2H]C([2H])(c1cnn(C)c1)N1C(=O)c2cc(S(=O)(=O)NC3(C)CC3)cc(C(F)(F)F)c2N2C1=NC[C@H]2C [Example 134, (R)-1-methyl-4-((1-methyl-1H-pyrazol-4-yl)methyl-d2)-N-(1-methylcyclopropyl)-5-oxo-9-(trifluoromethyl)-1,2,4,5-tetrahydroimidazo[1,2-a]quinazoline-7-sulfonamide]",≤ 100
15,"C[C@@H]1CN=C2N(Cc3cnn(C)c3)C(=O)c3cc(S(=O)(=O)NC4(C)CC4)cc(-c4ccc(F)nc4)c3N21 [Example 135, (R)-9-(6-fluoropyridin-3-yl)-1-methyl-4-((1-methyl-1H-pyrazol-4-yl)methyl)-N-(1-methylcyclopropyl)-5-oxo-1,2,4,5-tetrahydroimidazo[1,2-a]quinazoline-7-sulfonamide]",≤ 100
16,"C[C@@H]1CN=C2N(Cc3cnn(C)c3)C(=O)c3cc(S(=O)(=O)NC4(C)CC4)cc(-c4ccc(F)cc4)c3N21 [Example 136, (R)-9-(4-fluorophenyl)-1-methyl-4-((1-methyl-1H-pyrazol-4-yl)methyl)-N-(1-methylcyclopropyl)-5-oxo-1,2,4,5-tetrahydroimidazo[1,2-a]quinazoline-7-sulfonamide]",≤ 100
17,"[2H]C([2H])(c1cnn(C)c1)N1C(=O)c2cc(S(=O)(=O)NC3(C)CC3)cc(Br)c2N2C1=NC[C@H]2C [Example 137, (R)-9-bromo-1-methyl-4-((1-methyl-1H-pyrazol-4-yl)methyl-d2)-N-(1-methylcyclopropyl)-5-oxo-1,2,4,5-tetrahydroimidazo[1,2-a]quinazoline-7-sulfonamide]",≤ 100
18,"C[C@@H]1CN=C2N(Cc3cnn(C)c3)C(=O)c3cc(S(=O)(=O)NC4(C)CC4)cc(C#N)c3N21 [Example 138, (R)-9-cyano-1-methyl-4-((1-methyl-1H-pyrazol-4-yl)methyl)-N-(1-methylcyclopropyl)-5-oxo-1,2,4,5-tetrahydroimidazo[1,2-a]quinazoline-7-sulfonamide]",100 to 1000
